One assay concerns the target T1, human recombinant HDAC6 (Homo sapiens, UniProt Q9UBN7).
T1 construct: purchased BPS Bioscience Inc. 50006
T1 sequence (Q9UBN7 1-1215): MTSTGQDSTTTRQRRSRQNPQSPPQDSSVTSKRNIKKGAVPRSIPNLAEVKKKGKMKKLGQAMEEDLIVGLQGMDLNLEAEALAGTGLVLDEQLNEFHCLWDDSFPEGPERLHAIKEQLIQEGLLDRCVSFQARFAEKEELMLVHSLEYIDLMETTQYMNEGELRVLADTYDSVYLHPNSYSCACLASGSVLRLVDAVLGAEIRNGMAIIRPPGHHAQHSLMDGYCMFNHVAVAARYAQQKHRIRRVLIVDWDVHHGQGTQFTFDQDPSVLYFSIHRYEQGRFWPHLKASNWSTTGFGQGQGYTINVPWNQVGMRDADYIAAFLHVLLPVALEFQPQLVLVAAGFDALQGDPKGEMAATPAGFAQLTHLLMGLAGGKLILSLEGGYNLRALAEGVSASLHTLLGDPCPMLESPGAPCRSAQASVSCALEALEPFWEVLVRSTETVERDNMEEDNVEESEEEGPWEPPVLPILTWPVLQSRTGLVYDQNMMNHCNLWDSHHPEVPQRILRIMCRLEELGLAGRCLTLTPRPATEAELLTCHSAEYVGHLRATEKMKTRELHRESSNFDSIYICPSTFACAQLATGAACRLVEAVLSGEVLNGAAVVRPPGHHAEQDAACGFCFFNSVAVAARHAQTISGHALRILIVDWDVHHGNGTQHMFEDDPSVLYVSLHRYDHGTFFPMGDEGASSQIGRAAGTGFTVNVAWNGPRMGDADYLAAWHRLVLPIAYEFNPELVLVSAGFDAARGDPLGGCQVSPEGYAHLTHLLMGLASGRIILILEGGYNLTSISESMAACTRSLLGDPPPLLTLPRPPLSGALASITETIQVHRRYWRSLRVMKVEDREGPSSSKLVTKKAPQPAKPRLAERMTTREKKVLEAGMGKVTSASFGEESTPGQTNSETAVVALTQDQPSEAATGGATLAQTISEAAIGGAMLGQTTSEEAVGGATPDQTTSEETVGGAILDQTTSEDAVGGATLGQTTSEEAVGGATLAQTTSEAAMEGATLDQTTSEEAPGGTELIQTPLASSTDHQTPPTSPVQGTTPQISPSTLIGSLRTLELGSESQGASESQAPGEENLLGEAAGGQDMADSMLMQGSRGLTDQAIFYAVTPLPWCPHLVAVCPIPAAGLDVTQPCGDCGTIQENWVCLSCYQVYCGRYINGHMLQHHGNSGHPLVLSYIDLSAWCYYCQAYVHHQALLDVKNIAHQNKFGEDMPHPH
Kind of assay: Fluorogenic HDAC enzyme inhibition assay (ZMAL substrate), HDAC6. In kind it is biochemical. As for the experimental part: First, predilutions (100-fold final assay concentration) of test compounds or reference inhibitors were prepared. To this end, 3-fold serial dilutions of the respective DMSO stock solutions were prepared in DMSO using clear V-bottom 96-well microplates (Greiner Bio-One, Greiner AG, Kremsmünster, Austria). Predilutions designated for photolysis were irradiated for 10 min using the UV reactor described above. […] Next, 5.0 µL of these serial dilutions in assay buffer were transferred into 96-well microplates (OptiPlate-96 Black, PerkinElmer, Waltham, MA, USA). […] Fluorescence (excitation: 355 nm, emission: 460 nm) was measured using a FLUOstar OPTIMA microplate reader (BMG LABTECH GmbH, Ortenberg, Germany). IC50 values were determined by generating normalized dose–response curves using the built-in “log(inhibitor) vs. response (three parameters)” equation provided by GraphPad Prism (GraphPad Prism 9.0, San Diego, CA, USA). All compounds were tested in duplicates; reported mean IC50 values, including standard deviation, were calculated from at least two independent experiments.

Assay [1] deals with caspase 3/7 in A2780 cells. Kind of assay: Caspase-Glo 3/7 assay. It counts as cell-based, human. The conditions noted are these: A2780, 0.5 µM, 24 h. The method, then:
A2780 cells (8000 cells/well) were seeded in white sterile 96-well plates (ThermoFisher Scientific, Waltham, MA, USA, #136102). Dilutions (500 µM) in DMSO were prepared from the respective stock solutions in DMSO (10 mM). Predilutions used for photolysis experiments were irradiated in clear U-bottom 96-well microplates (Greiner Bio-One, Greiner AG, Kremsmünster, Austria) for 10 min in the UV reactor described above. Vehicle control (DMSO) or compounds, at a concentration of 0.5 µM, were added to the cells. The cells were then incubated for 24 h under standard culture conditions. The final volume was 100 µL, and the final DMSO concentration was 0.1%. After 24 h, cells were subsequently incubated with Caspase-Glo 3/7 substrate (Promega, Madison, WI, USA, #G8091) for 1 h at 25 °C, according to the manufacturer´s protocol. Luminescence was detected at 25 °C using a Spark microplate reader (Tecan Group AG, Maennedorf, Swiss). Two independent experiments were performed in triplicates.
GraphPad Prism (GraphPad Software, San Diego, CA, USA) was used to perform statistical analysis. Normality of the data was assessed using Shapiro–Wilk’s and Kolmogorov–Smirnov tests. To determine statistical differences between means, a one-way analysis of variance (ANOVA) was performed. If the difference was significant (p < 0.05), the mean of each column was compared to the mean of the control and corrected for multiple comparisons using Dunnett’s post-hoc test. Differences were considered statistically significant at * p < 0.05, ** p < 0.01, *** p < 0.001.

The record followed here is PMC10056348, “Photocaged Histone Deacetylase Inhibitors as Prodrugs in Targeted Cancer Therapy” (Pharmaceuticals, 2023).

The IC50 is the concentration that gives 50% inhibition.

`CN(C)c1ccc(C(=O)N(CC(=O)NCc2ccccc2)Cc2ccc(C(=O)NO)cc2)cc1` [I, N-[2-(benzylamino)-2-oxoethyl]-4-(dimethylamino)-N-[4-(hydroxycarbamoyl)-benzyl]-benzamide]: the IC50 at human recombinant HDAC6 (without UV irradiation) was found to be 13.1 ± 0.9 nM. Besides, in assay [1] (without UV), the “activation of caspase 3/7” value is listed as “significant activation of caspase 3/7”.

Regarding `COc1cc(CONC(=O)c2ccc(CN(CC(=O)NCc3ccccc3)C(=O)c3ccc(N(C)C)cc3)cc2)c([N+](=O)[O-])cc1OC` [pc-I, N-[2-(Benzylamino)-2-oxoethyl]-N-(4-{[(4,5-dimethoxy-2-nitrobenzyl)oxy]carbamoyl}benzyl)-4-(dimethylamino)benzamide], the 50% inhibitory concentration (IC50) at human recombinant HDAC6 (after UV irradiation (365 nm, 10 min)) stood at 21.6 ± 2.8 nM; at human recombinant HDAC6 (without UV irradiation), 794 ± 74.7 nM. Besides, the “increase of HDAC6 inhibition upon irradiation with UV light” value on human recombinant HDAC6 (irradiated vs non-irradiated) was found to be 37 fold. Further, the “activation of caspase 3/7” value is “significant activation of caspase 3/7” in assay [1] (+ UV (365 nm, 10 min)) and “inactive” in assay [1] (without UV).
